Assay results: patent US10039760B2, “Method of using diketopiperazines and composition containing them” (Ampio Pharmaceuticals, Inc., priority 2000, dated 2018)

System: NHBE 6122 normal human bronchial epithelial cells
Test: PAF-induced release of IL-8 by NHBE 6122 cells (IL-8 ELISA of cell supernatants)
Type: cell-based
Description: NHBE 6122 normal human bronchial epithelial cells (Clonetics, San Diego, Calif.) were added to a 24-well tissue culture plate (Falcon, now BD Biosciences, Franklin Lakes, […]) in BEGM (bronchial epithelial growth medium; Clonetics) containing epinephrine (complete medium) at 37° C. and 5% CO2. After adhering, the cells were washed twice with BEGM medium without epinephrine. They were then incubated in complete medium or in complete medium containing 20 μM 3-methyl-2,5-diketopiperazine-6-acetic acid (DA-DKP; preparation described in Example 1, 5; stock solution made in HEPES buffered saline (HBSS; Clonetics) at 4 mM for 20 minutes at 37° C. and 5% CO2. Platelet activating factor (PAF; Sigma, St. Louis, Mo.) dissolved in dimethylsulfoxide (DMSO; tissue culture grade; Sigma, St. Louis, Mo.) was then added to a final concentration of 100 nM or 500 nM, and the cells were incubated for an additional 6 hours at 37° C. and 5% CO2. Medium containing DMSO and HBSS was used as a control.
The concentration of IL-8 in cell supernatants was determined by an ELISA using human IL-8 matched pair antibodies (Endogen, Cambridge, Mass.). The ELISA was performed using an ELISA kit from Endogen, Cambridge, Mass. according to the manufacturer's instructions with the following exceptions: (1) coating antibody at 1 μg/ml; (2) detecting antibody 30 ng/ml; StrepAvidin HRP diluted 1:32,000.

Compound	IL-8 (Table 1, PAF 100 nM alone, 20,000 cells/well, 6 hours) [pg/mL]	IL-8 (Table 2, PAF 500 nM alone, 20,000 cells/well, 6 hours) [pg/mL]	IL-8 (Table 3, PAF 100 nM alone, cells split to 5,000 cells/well four days prior, grown to 70% confluence) [pg/mL]	IL-8 (Table 1, 20 min pre-incubation with DA-DKP 20 μM, then PAF 100 nM for 6 hours, 20,000 cells/well) [pg/mL]	IL-8 (Table 1, DA-DKP 20 μM alone, no PAF, 20,000 cells/well, 6 hours) [pg/mL]	IL-8 (Table 2, 20 min pre-incubation with DA-DKP 20 μM, then PAF 500 nM for 6 hours, 20,000 cells/well) [pg/mL]	IL-8 (Table 2, DA-DKP 20 μM alone, no PAF, 20,000 cells/well, 6 hours) [pg/mL]	IL-8 (Table 3, DA-DKP 20 μM alone, no PAF, cells split to 5,000 cells/well four days prior, grown to 70% confluence) [pg/mL]	IL-8 (Table 3, pre-incubation with DA-DKP 20 μM, then PAF 100 nM, cells split to 5,000 cells/well four days prior, grown to 70% confluence) [pg/mL]	IL-8 secretion induced by PAF (result in words, pre-incubation of the cells with the diketopiperazine)
1-O-alkyl-2-acetyl-sn-glycerol-3-phosphorylcholine [PAF, reference compound]	1094.68	887.87	355.36							
CC1NC(=O)C(CC(=O)O)NC1=O (stereo not shown) [DA-DKP, 3-methyl-2,5-diketopiperazine-6-acetic acid]				714.91	803.11	542.5	837.84	184.86	201.93	inhibited
